Starred links: 1 amine or outer side, 2 acyl side, 3 side chain; linkers in the order of their positions; H or OH if unused. Positions of bridges follow the written chain, without caps; N, C: chain ends. Non-standard residues stand in square brackets, D forms with d. Residues, ends and D or L forms follow the SMILES beside them. *: point of attachment. NMeF = CN[C@@H](Cc1ccccc1)C(=O)O; NMeI = CC[C@H](C)[C@H](NC)C(=O)O; NMeT = CN[C@H](C(=O)O)[C@@H](C)O; hPhe = N[C@@H](CCc1ccccc1)C(=O)O; NMeβAla = CN(CCC(=O)[*:2])[*:1]; NMeD = CN[C@@H](CC(=O)O)C(=O)O; NMeL = CN[C@@H](CC(C)C)C(=O)O; dNMeV = CN[C@@H](C(=O)O)C(C)C; NMeV = CN[C@H](C(=O)O)C(C)C; NMeAbu = CC[C@H](NC)C(=O)O; NMeA = CN[C@@H](C)C(=O)O; Piperidide = C1CCN(*)CC1; Abu = CC[C@H](N)C(=O)O; NBuGly = CCCCNCC(=O)O; Sar = CNCC(=O)O; tBu = CC(C)(C)*
Legend:
[1] = Metabolic stability test: liver microsomal stability assay; type: in vitro ADME, mouse; conditions: mouse liver microsomes 0.5 mg protein/mL, compound 1 µM; for microsomal CLint at 1 µM: male, pH 7.4, presence of NADPH, read-out: Mouse Hepatic Microsome CLh,int NADPH(+); for Mouse Hepatic Microsome CLh,int NADPH(-): absence of NADPH
[2] = Membrane permeability test using Caco-2 cells with preincubation; type: in vitro ADME; conditions: Caco-2; preincubation 20 to 24 hours; Apical FaSSIF/HBSS pH 6.0, Basal HBSS 4% BSA pH 7.4; 180 minutes; read-out: Caco2 Papp
Caco-2 cells = assay: as above; type: in vitro ADME; conditions: Caco-2 cells, preincubation 20 to 24 hours; apical FaSSIF/HBSS 1% DMSO pH 6.0, basal HBSS 4% BSA pH 7.4; basal sample at 180 minutes

Row | microsomal CLint at 1 µM [1] [µL/min/mg] | Mouse Hepatic Microsome CLh,int NADPH(-) [1] [µL/min/mg Protein] | Papp A→B [2] [×10⁻⁶ cm/s] | Caco2 Papp (10^-6 cm/sec) (Caco-2 cells) | Compound
1 | 32.6 | 38.5 | 0.03 | 0.03 10^-6 cm/sec | CCCCN1CC(=O)N(C)[C@@H](Cc2ccccc2)C(=O)N[C@@H](COC(C)(C)C)C(=O)N(C)[C@@H](CC(C)C)C(=O)N(C)[C@@H](CC)C(=O)N(C)[C@@H](C)C(=O)N[C@@H]([C@@H](C)CC)C(=O)N(C)[C@@H](C(C)C)C(=O)N[C@@H](C(C)C)C(=O)N(C)[C@H](C(=O)N2CCCCC2)CC(=O)N(C)CCC(=O)N(C)[C@@H](CC(C)C)C(=O)N[C@@H]([C@@H](C)CC)C(=O)N(C)[C@@H](Cc2ccccc2)C1=O [pd082] ([NMeβAla][NMeL]I[NMeF][NBuGly][NMeF]S(tBu)[NMeL][NMeAbu][NMeA]I[NMeV]V[NMeD]-Piperidide; lactam N-14)
2 | 11.4 | 7.3 | 0.04 | 0.04 10^-6 cm/sec | CC[C@@H]1NC(=O)[C@H](CC(C)C)N(C)C(=O)[C@H](C)NC(=O)[C@@H]2CCCN2C(=O)[C@H](CC)N(C)C(=O)[C@H](CC(C)C)N(C)C(=O)CN(C)C(=O)[C@H](Cc2ccccc2)N(C)C(=O)[C@H]([C@@H](C)CC)NC(=O)CCN(C)C(=O)[C@H](C(C)C)N(C)C(=O)[C@H](COC(C)(C)C)NC(=O)[C@H](CC(C)C)N(C)C(=O)C[C@@H](C(=O)N2CCCCC2)N(C)C1=O [pd083] ([NMeL]S(tBu)[NMeV][NMeβAla]I[NMeF][Sar][NMeL][NMeAbu]PA[NMeL][Abu][NMeD]-Piperidide; lactam N-14)
3 | 39 | 37.8 | 0.21 | 0.21 10^-6 cm/sec | CC[C@H](C)[C@@H]1NC(=O)[C@H](CC(C)C)N(C)C(=O)[C@H](CC(C)C)N(C)C(=O)[C@H](C)N(C)C(=O)C[C@@H](C(=O)N2CCCCC2)N(C)C(=O)[C@H](C)N(C)C(=O)[C@H](CC(C)C)NC(=O)[C@H](C(C)C)N(C)C(=O)[C@H](CC(C)C)N(C)C(=O)CNC(=O)[C@H]([C@@H](C)CC)N(C)C(=O)[C@H](Cc2ccccc2)N(C)C(=O)[C@H](C)NC(=O)[C@H](Cc2ccccc2)N(C)C1=O [pd084] ([NMeA][NMeL][NMeL]I[NMeF]A[NMeF][NMeI]G[NMeL][NMeV]L[NMeA][NMeD]-Piperidide; lactam N-14)
4 | 26.9 | 28.9 | 0.17 | 0.17 10^-6 cm/sec | CC[C@H](C)[C@@H]1NC(=O)[C@H](CC(C)C)N(C)C(=O)CN(C)C(=O)C[C@@H](C(=O)N2CCCCC2)N(C)C(=O)CNC(=O)[C@H](C)N(C)C(=O)[C@H](CC)N(C)C(=O)[C@H](C(C)C)N(C)C(=O)[C@H](C)N(C)C(=O)[C@H](Cc2ccccc2)N(C)C(=O)[C@H](CC(C)C)NC(=O)[C@H](Cc2ccccc2)N(C)C(=O)[C@H](C(C)C)NC(=O)[C@H](CC(C)C)N(C)C1=O [pd085] ([Sar][NMeL]I[NMeL]V[NMeF]L[NMeF][NMeA][NMeV][NMeAbu][NMeA]G[NMeD]-Piperidide; lactam N-14)
5 | 20.1 | 20.0 | 0.06 | 0.06 10^-6 cm/sec | CC(C)C[C@@H]1NC(=O)[C@H](CC(C)C)N(C)C(=O)[C@H]([C@@H](C)O)NC(=O)[C@H](C(C)C)N(C)C(=O)[C@H](Cc2ccccc2)N(C)C(=O)[C@@H](C(C)C)NC(=O)C[C@@H](C(=O)N2CCCCC2)N(C)C(=O)[C@H](C)N(C)C(=O)[C@H](Cc2ccccc2)N(C)C(=O)[C@H](C)NC(=O)[C@H](COC(C)(C)C)NC(=O)[C@H](CC(C)C)N(C)C(=O)[C@H](C(C)C)NC(=O)CN(C)C1=O [pd086] ([dV][NMeF][NMeV]T[NMeL]L[Sar]V[NMeL]S(tBu)A[NMeF][NMeA][NMeD]-Piperidide; lactam N-14)
6 | 31.8 | 29.0 | < 0.07 | <0.07 10^-6 cm/sec | CCCCN1CC(=O)N(C)[C@@H](CC(C)C)C(=O)N[C@@H]([C@@H](C)O)C(=O)N(C)[C@@H](C)C(=O)N2CCC[C@H]2C(=O)N[C@@H](CCc2ccccc2)C(=O)N[C@@H]([C@@H](C)CC)C(=O)N(C)[C@H](C(=O)N2CCCCC2)CC(=O)N(C)[C@@H](CC(C)C)C(=O)N[C@@H](COC(C)(C)C)C(=O)N(C)[C@@H](C(C)C)C(=O)N[C@@H]([C@@H](C)CC)C(=O)N2CCC[C@H]2C(=O)N[C@@H](C(C)C)C1=O [pd087] ([NMeL]S(tBu)[NMeV]IPV[NBuGly][NMeL]T[NMeA]P[hPhe]I[NMeD]-Piperidide; lactam N-14)
7 | 20.9 | 24.2 | 0.11 | 0.11 10^-6 cm/sec | CC[C@@H]1NC(=O)[C@H](C(C)C)N(C)C(=O)[C@H](C(C)C)NC(=O)[C@H](C)N(C)C(=O)CCN(C)C(=O)[C@H](CCc2ccccc2)NC(=O)[C@H](CC(C)C)N(C)C(=O)[C@H]([C@@H](C)CC)NC(=O)CN(C)C(=O)C[C@@H](C(=O)N2CCCCC2)N(C)C(=O)[C@H](CC(C)C)NC(=O)[C@H](CC(C)C)N(C)C(=O)[C@H]([C@@H](C)O)NC(=O)[C@H](Cc2ccccc2)N(C)C1=O [pd088] ([Sar]I[NMeL][hPhe][NMeβAla][NMeA]V[NMeV][Abu][NMeF]T[NMeL]L[NMeD]-Piperidide; lactam N-14)
8 | 29 | 29.8 | < 0.11 | <0.11 10^-6 cm/sec | CC[C@@H]1NC(=O)[C@H](Cc2ccccc2)N(C)C(=O)[C@H](COC(C)(C)C)NC(=O)[C@H](CC(C)C)N(C)C(=O)[C@H](C)N(C)C(=O)[C@H]([C@@H](C)O)NC(=O)[C@H](CC(C)C)N(C)C(=O)[C@H](C(C)C)N(C)C(=O)[C@H](CCc2ccccc2)NC(=O)[C@H](CC(C)C)N(C)C(=O)[C@@H](C(C)C)N(C)C(=O)C[C@@H](C(=O)N2CCCCC2)N(C)C(=O)[C@H](CC(C)C)NC(=O)[C@H](C(C)C)N(C)C1=O [pd089] ([dNMeV][NMeL][hPhe][NMeV][NMeL]T[NMeA][NMeL]S(tBu)[NMeF][Abu][NMeV]L[NMeD]-Piperidide; lactam N-14)
9 | 45 | 23.9 | < 0.12 | <0.12 10^-6 cm/sec | CC[C@@H]1NC(=O)[C@H](CC(C)C)N(C)C(=O)[C@H]([C@@H](C)O)NC(=O)[C@H](C(C)C)N(C)C(=O)[C@H](C)NC(=O)[C@H](Cc2ccccc2)N(C)C(=O)[C@@H](C(C)C)NC(=O)C[C@@H](C(=O)N2CCCCC2)N(C)C(=O)CN(C)C(=O)[C@H](Cc2ccccc2)N(C)C(=O)[C@H](C)N(C)C(=O)[C@H](COC(C)(C)C)NC(=O)[C@H](CC(C)C)N(C)C(=O)CN(C)C1=O [pd090] ([dV][NMeF]A[NMeV]T[NMeL][Abu][Sar][NMeL]S(tBu)[NMeA][NMeF][Sar][NMeD]-Piperidide; lactam N-14)
10 | 39.4 | 36.1 | 0.11 | 0.11 10^-6 cm/sec | CC[C@@H]1NC(=O)[C@H](Cc2ccccc2)N(C)C(=O)[C@H](COC(C)(C)C)NC(=O)[C@H](CC(C)C)N(C)C(=O)[C@H](CC(C)C)NC(=O)[C@H](C)N(C)C(=O)C[C@@H](C(=O)N2CCCCC2)N(C)C(=O)[C@H](CC(C)C)N(C)C(=O)[C@H]([C@@H](C)CC)NC(=O)[C@H](Cc2ccccc2)N(C)C(=O)[C@H]([C@@H](C)O)N(C)C(=O)[C@H](CC)N(C)C(=O)[C@H](CC(C)C)NC(=O)CN(C)C1=O [pd091] ([NMeA]L[NMeL]S(tBu)[NMeF][Abu][Sar]L[NMeAbu][NMeT][NMeF]I[NMeL][NMeD]-Piperidide; lactam N-14)
11 | 22 | 26.3 | 0.09 | 0.09 10^-6 cm/sec | CC[C@H](C)[C@@H]1NC(=O)CN(C)C(=O)C[C@@H](C(=O)N2CCCCC2)N(C)C(=O)[C@H](C(C)C)NC(=O)[C@H](Cc2ccccc2)N(C)C(=O)[C@H](CC(C)C)N(C)C(=O)[C@H]([C@@H](C)O)NC(=O)[C@H](CC(C)C)N(C)C(=O)[C@H](CC(C)C)NC(=O)[C@H](C(C)C)N(C)C(=O)[C@H](C)N(C)C(=O)[C@H](CC(C)C)N(C)C(=O)[C@H](CCc2ccccc2)NC(=O)[C@H](CC(C)C)N(C)C1=O [pd092] ([Sar]I[NMeL][hPhe][NMeL][NMeA][NMeV]L[NMeL]T[NMeL][NMeF]V[NMeD]-Piperidide; lactam N-14)
12 | 26.8 | 20.4 | < 0.14 | <0.14 10^-6 cm/sec | CC[C@H]1C(=O)N(C)[C@@H](C(C)C)C(=O)N[C@@H](CC(C)C)C(=O)N(C)[C@H](C(=O)N2CCCCC2)CC(=O)N(C)[C@H](C(C)C)C(=O)N(C)[C@@H](CC(C)C)C(=O)N[C@@H](CCc2ccccc2)C(=O)N(C)[C@@H](C(C)C)C(=O)N(C)[C@@H](CC(C)C)C(=O)N[C@@H]([C@@H](C)O)C(=O)N(C)[C@@H](C)C(=O)N(C)[C@@H](CC(C)C)C(=O)N[C@@H](COC(C)(C)C)C(=O)N(C)[C@@H](Cc2ccccc2)C(=O)N1C [pd093] ([dNMeV][NMeL][hPhe][NMeV][NMeL]T[NMeA][NMeL]S(tBu)[NMeF][NMeAbu][NMeV]L[NMeD]-Piperidide; lactam N-14)
